Consider three compounds from patent US20200246364A1, “MEDICAL APPLICATION OF COMPOSITION OF FRUCTOSE-1,6-BISPHOSPHATE AND BLOOD CONCENTRATION STABILIZER THEREOF” (ZHEJIANG UNIVERSITY, priority 2017, published 2020).

For orientation: viability means a read-out of living cells in per cent, often relative to untreated cells.

The test system of one data set is glioma cells KNS-89. Briefly: Lactic acid released by glioma cells (glycolysis). Particulars: KNS-89, 1.6 mM. The data set is classed as cell-based, human.
A further data set relates to glioma cells U87-MG. Briefly: Lactic acid released by glioma cells (glycolysis). The class given is cell-based, human. The note with it: 1.6 mM.
For the next data set, the system named is glioma cells SHG-44. Briefly: Lactic acid released by glioma cells (glycolysis). The class given is cell-based, human. The note with it: SHG-44, 1.6 mM.
The subject of data set [1] is mouse liver cancer cells H22. The data set can be described thus: Tumor growth of mouse liver cancer H22 model. The data set is classed as in vivo, ICR mice. Particulars: FBP 500 mg/kg, i.g., 7 days; for Tumor weight: three times per day; for inhibition of tumor growth (inhibition ratio): H22, metformin 150 mg/kg, sitagliptin 20 mg/kg. On the procedure: The treatment was performed three times per day, in which metformin or sitagliptin was administrated 0.5 h before trisodium fructose-1,6-bisphosphate. This is repeated for 7 days, and situations of the animals during the experiments were observed. The animals were sacrificed 24 hours after the last treatment, the tumor masses were taken out and weighed, and the average tumor weight in each group of animals was used as an efficacy index.

The next data set concerns Bel-7402. Briefly: cells. The note with it: Homo sapiens, Bel-7402, 72 h.
Data set [2] concerns fructose-1,6-bisphosphatase 1. The data set can be described thus: Kidney protein level of fructose-1,6-bisphosphatase 1 after 14 days treatment (Western Blot). The class given is in vivo. Particulars: SD rats, 14 days i.g.; FBP 500 mg/kg, metformin 150 mg/kg, sitagliptin 20 mg/kg; vs control group. Here is the method:
180-200 g SD rats were divided into 4 groups: a saline control group, a trisodium fructose-1,6-bisphosphate hydrate group (500 mg/kg, i.g), a metformin group (150 mg/kg, i.g) or a sitagliptin group (20 mg/kg, i.g), and a trisodium fructose-1,6-bisphosphate and metformin or sitagliptin combination group, 5 rats in each group. All groups were intragastrically treated, metformin or sitagliptin was administrated 0.5 h before fructose-1,6-bisphosphate, and this was repeated in 14 consecutive days. At 3 hours after the last intragastric treatment with fructose-1,6-bisphosphate, rat blood was collected to detect the blood concentration of FBP, kidney tissue was taken and the protein level of fructose-1,6-bisphosphatase 1 was measured by Western Blot.

The subject of another data set is SW620. The data set can be described thus: cells. Particulars: Homo sapiens, SW-620, 72 h, read-out: cell viability (Con = 100).
Data set [3] is described as follows: Weight gain and fat accumulation caused by high-fat diet. The data set is classed as in vivo, ICR mice. The note with it: high-fat diet mice.
Method: 40 ICR male mice (17-19 g/per mouse) were divided into 2 groups. […] The animals of the normal group (Naive) were still fed with the basic feed, and the model animals were equally divided into 4 groups and were further fed with the high-fat diet. In addition, according to the amount of water the mice had consumed, a certain dose of the agent was dissolved in drinking water. The animals in the model group (Model) were fed with the purified water, the animals in the fructose-1,6-bisphosphate group were fed with water containing 0.18% of 8-molecule hydrate of sodium fructose-1,6-bisphosphate (equivalent to FBP 300 mg/kg), the animals in the sitagliptin group were fed with water containing 0.012% of sitagliptin phosphate salt (equivalent to STG 20 mg/kg), and the animals in the combination group were fed with water containing FBP 500 mg/kg+STG 20 mg/kg. The treatment lasted continuously for 6 weeks, the body weight, food intake and water intake were measured per week, the body weight and body length (CM) were measured on the last day of the last week, and a Lee's INDEX (Lee's INDEX=body weight (g)^(1/3) * 1000/body length (cm)) was calculated to evaluate the state of animal obesity. Then, the animals were sacrificed by cervical vertebra dislocation and the mice were dissected, the epididymal fat pad was taken and weighed, and a fat coefficient was calculated to further investigate the degree of obesity of the mice.
In the next data set the test system is HCT-8. The data set can be described thus: Cell viability, Sulforhodamine B (SRB) staining. The data set is classed as cell-based, human. The note with it: HCT-8, 72 h, FBP 0.8 mM.
The next data set concerns melanoma B16 cell. Briefly: Cell viability, Sulforhodamine B (SRB) staining. Particulars: Mus musculus, B16, 72 h, read-out: cell viability inhibited. On the technique in general: The SRB assay estimates cell density from bound dye.
For a further data set, the system named is Huh-7. Briefly: Cell viability, Sulforhodamine B (SRB) staining. The class given is cell-based, human. The note with it: Huh-7, 72 h, FBP 0.8 mM.

Method for Bel-7402: (§1) Human liver cancer cell strains Bel-7402 and huh-7, which had been incubated for 24 hours, were respectively incubated in a medium containing 1.6 mM or 0.8 mM of trisodium fructose-1,6-bisphosphate, a medium containing 0.2 mM of metformin or 25 μM of sitagliptin, and a medium containing 0.8 mM of trisodium fructose-1,6-bisphosphate and 0.2 mM of metformin/25 μM of sitagliptin for 72 h. A control group (Con) was not treated with the agent. Cell viability was determined by Sulforhodamine B (SRB) staining analysis method.
Method for HCT-8: (§2) Human intestinal cancer cell strains SW620 and HCT-8, which had been incubated for 24 hours, were respectively incubated in a medium containing 0.8 mM of trisodium fructose-1,6-bisphosphate, a medium containing 0.2 mM of metformin/100 μM of sitagliptin, and a medium containing 0.8 mM of trisodium fructose-1,6-bisphosphate and 0.2 mM of metformin/100 μM of sitagliptin for 72 h. A control group (Con) was not treated with the agent. Cell viability was determined by Sulforhodamine B (SRB) staining analysis method.
Method for Huh-7: as §1
Method for SW620: as §2
Method for glioma cells KNS-89: (§3) Human glioma cell strains (U87-MG, KNS-89, SHG-44) were respectively incubated in culture media containing 0.8 mM of trisodium fructose-1,6-bisphosphate salt, and 1.6 mM of trisodium fructose-1,6-bisphosphate salt, and 1.6 mM of 2-deoxyglucose, and the contents of lactic acid as the final glycolytic product released by the cells in the culture media were measured after 12 h, 24 h, 36 h, and 48 h. […] Human glioma cell strain (U87-MG) was incubated in the culture medium containing 0.8 mM of trisodium fructose-1,6-bisphosphate salt for 1 h, 3 h, 6 h, 12 h, 24 h, 36 h, and 48 h, and level changes of key metabolic enzymes in the glycolytic pathway of cells were measured by Western Blot at the respective time points.
Method for glioma cells SHG-44: as §3
Method for glioma cells U87-MG: as §3
Method for melanoma B16 cell: Mouse melanoma B16 cells, which had been incubated for 24 hours, were incubated in a medium containing 0.8 mM of trisodium fructose-1,6-bisphosphate, a medium containing 20 μM of sitagliptin, and a medium containing 0.8 mM of trisodium fructose-1,6-bisphosphate and 20 μM of sitagliptin for 72 h. A control group (Con) was not treated with the agent. Cell viability was determined by Sulforhodamine B (SRB) staining analysis method.

In the case of `O=CC[C@@H](O)[C@H](O)[C@H](O)CO` [2-DG, 2-deoxy-D-glucose], the “Relative levels of lactic acid (compared with the control group)” value in the data set on glioma cells KNS-89 (12 h) is reported as 0.31 ± 0.09; in the data set on glioma cells KNS-89 (24 h) it was 0.27 ± 0.13; in the data set with glioma cells KNS-89 (36 h) it was 0.31 ± 0.02; with glioma cells U87-MG (12 h), 0.48 ± 0.16; with glioma cells U87-MG (24 h), 0.31 ± 0.07; in the data set with glioma cells U87-MG (36 h), 0.65 ± 0.10. Further, the “Relative levels of lactic acid (compared with the control group)” value turned out to be 0.76 ± 0.15 in the data set on glioma cells SHG-44 (12 h), 0.62 ± 0.13 in the data set on glioma cells SHG-44 (24 h) and 0.57 ± 0.04 in the data set with glioma cells SHG-44 (36 h).

In data set [1] (H22, metformin experiment, Met 150 mg/kg, Con 1.66 ± 0.29), `CN(C)C(=N)N=C(N)N` [Met, metformin] returned a Tumor weight of 1.46 ± 0.23 g. For the same compound, the “inhibition of tumor growth (inhibition ratio)” value in data set [1] is listed as “no significant difference”. The figures for the viability at 200 µM in the data set with Bel-7402 (read-out: cell viability (Con = 100)) and in the data set with SW620 were 91.7 ± 1.62% and 95.9 ± 7.54%, respectively. In the data set on Bel-7402 (read-out: cell viability inhibited), the cytotoxicity at 200 µM came to 5%. The “protein level of fructose-1,6-bisphosphatase 1 in kidney tissue (Western Blot)” value in data set [2] was “not significantly changed”.

As for `N[C@@H](CC(=O)N1CCn2c(nnc2C(F)(F)F)C1)Cc1cc(F)c(F)cc1F` [STG, sitagliptin], in data set [3] (6 weeks, model group 3.96±0.83%, normal group 1.58±0.68%), the “fat coefficient (epididymal fat pad)” value is reported as 3.28±1.14%. Further, the “Lee's INDEX” value in [3] (6 weeks, model group 353.28±9.64, normal group 337.05±9.96) was determined as 346.34±9.36. The “body weight after 6 weeks” value in data set [3] (agents in drinking water, FBP 300 mg/kg, STG 20 mg/kg, combination FBP 500 mg/kg+STG 20 mg/kg, model group 47.89±3.34) is 46.78 ± 6.1 g. In addition, in [1] (H22, sitagliptin experiment, STG 20 mg/kg, Con 1.48 ± 0.34), the Tumor weight came out at 0.78 ± 0.31 g. Moreover, in data set [1], the “inhibition of tumor growth (inhibition ratio)” value was 46.12%. The results for the cell viability inhibited result with HCT-8 (sitagliptin 100 μM) and in the data set on Huh-7 (sitagliptin 25 μM) were “did not affect” and “no significant difference”, respectively. For the same compound, the viability at 100 µM in the data set with HCT-8 (Homo sapiens, STG 100 μM, read-out: cell viability (Con = 100)) was determined as 95.4 ± 3.79%. Further, the cytotoxicity at 20 µM in the data set with melanoma B16 cell is 16%. Moreover, the viability at 25 µM with Huh-7 (Homo sapiens, STG 25 μM, read-out: cell viability (Con = 100)) was found to be 92.1 ± 1.35%. For the same compound, the “protein level of fructose-1,6-bisphosphatase 1 in kidney tissue (Western Blot)” value in [2] is “not significantly changed”.
